Laboratory results published in patent publication US20020006958A1, “Substituted aminosalicylic acid amides with fungicidal effect and intermediate products for production thereof” (priority 1997, published 2002).

Assay: HPLC logP determination
Assay type: physicochemical
Conditions: stated in the preparation examples

In the case of `O=CNc1cccc(C(=O)Nc2ccc(Oc3ncnc(Oc4ccccc4)c3F)cc2)c1O` [Example 1, N-[4-(5-fluoro-6-phenoxy-pyrimidin-4-yloxy)-phenyl]-3-formyl-amino-2-hydroxy-benzamide], the chromatographic logP is reported as 3.31.

`O=C(Nc1ccc(Oc2ncnc(Oc3ccccc3)c2F)cc1)c1cccc([N+](=O)[O-])c1OCc1ccccc1` [Example V-1, 2-benzyloxy-N-[4-(5-fluoro-6-phenoxy-pyrimidin-4-yloxy)-phenyl]-3-nitro-benzamide] showed a chromatographic logP of 4.56.

`Nc1ccc(Oc2cc(Oc3ccccc3Cl)ncn2)cc1` [VII-a-1, 4-(4-aminophenoxy)-6-(2-chlorophenoxy)-pyrimidine] gave a chromatographic logP of 1.96.

Work on `Nc1ccc(Oc2cc(Cl)ncn2)cc1` [XI-1, 4-(4-aminophenoxy)-6-chloro-pyrimidine] yielded a chromatographic logP of 0.65.
